Patent US20110034335A1, “Treatment of Ornamental Plants” (priority 2009, published 2011)

Tests used:
Format in all cases: in vivo
Petunia = experiment: Spray with 1-MCP solutions with or without Silwet L-77, ethylene challenge (Example 6)
Experimental: (§1) Spray applications were made using (unless otherwise noted) AFxRD-038 powder containing 3.8% active ingredient, i.e. 1-MCP, and also containing dextrose, alpha-cyclodextrin, and amino acid salt. Rates listed are for active ingredient e.g. 5 mg active ingredient per liter. Sprayed liquid contained (unless otherwise noted) AFxRD-038 powder added to water. AFxRD-038 powder was obtained from AgroFresh Inc. The water used (unless otherwise noted) was tap water. Applications were done in 500 ml spray bottles at rates typical for growth regulators applications in the ornamental industry i.e., 200 ml per square meter. Spraying was done within 5-15 minutes of mixing the formulation. Plants were allowed to dry for 1-4 hours before being challenged with ethylene (2 ppm for about 16 hours at ambient temperatures).
(§2) Surfactant Silwet™ L-77 (called “surf” below) was sometimes included to evaluate the effect of surfactant on efficacy. Silwet™ L-77 was used in the form of a pure liquid. The amounts shown below as “ml/L” refer to milliliters of pure Silwet™ L-77 per liter of liquid CP composition.
Bud wilting (%) of Petunia (in six-pack trays) sprayed with 1-MCP solutions with or without Silwet™ L-77 surfactant and challenged with ethylene.

[1] = system: racks of flowering plants; experiment: Racks of flowering plants, overall comparison sprayed vs control (Example 8); details: 25 mg/L; every variety
Experimental: as §1
Racks of flowers were sprayed with spray liquid containing 25 mg/L at rate of 200 ml/square meter. Racks were then placed into a full enclosed truck (length 7.3 meter) for 14 hours. Plants were then challenged with ethylene and evaluated 3 and 7 days later, using a rating scale from 0 (poor) to 2 (good). […] Results were as follows:
In no case was the sprayed plant worse to a statistically significant degree than the corresponding control plant. In most cases the sprayed plant was better than the corresponding control plant.

‘Candy Stripe’ phlox = experiment: Spray with 1-MCP solutions with or without Silwet L-77, ethylene challenge (Example 2); details: for Bud or Flower Abscission (%): Day 5
Experimental: as §1, §2
(§3) Kalanchoe (unknown cultivar), ‘Candy Stripe’ phlox and ‘Sonnet’ snapdragon (all in pots of diameter 10 cm (4 inch)) were sprayed with 1-MCP solutions, with or without Silwet™ L-77 surfactant (specific gravity 1.007), and challenged with ethylene.
(§4) For Kanlanchoe, we observed the percent of plants on which one or more flowers died by wilting, whether or not it stayed on the plant. For Phlox and Snapdragon, we observed the percent of plants on which one or more flowers or one or more buds underwent abscission.

Kalanchoe = experiment: as above
Experimental: as §1, §2, §3, §4

‘Sonnet’ snapdragon = experiment: as above; details: for Bud or Flower Abscission (%): Day 5
Experimental: as §1, §2, §3, §4

Regal Geranium ‘Camelot’ = experiment: Spray with 1-MCP solutions with or without surfactant, ethylene challenge (Example 4)
Experimental: as §1, §2
(§5) Flower loss (%) on Regal Geranium cultivars, ‘Camelot’ and ‘Jewel’ (in pots), sprayed with 1-MCP solutions with or without surfactant (Silwet™ L-77) and challenged with ethylene.

Regal Geranium ‘Jewel’ = experiment: as above
Experimental: as §1, §2, §5

‘Magenta’ Impatiens = experiment: Spray with 1-MCP solutions with Silwet L-77, ethylene challenge (Example 5); details: for Wilt and/or Abscission (%): surf. 0.25 ml/L
Experimental: as §1, §2

[2] = 1-MCP 5 mg/L, surf 0 ml/L, Day 5
[3] = 1-MCP 5 mg/L, surf 0.25 ml/L, Day 5
[4] = 1-MCP 10 mg/L, surf 0 ml/L, Day 5
[5] = 1-MCP 10 mg/L, surf 0.25 ml/L, Day 5
[6] = 1-MCP 5 mg/L, surf. 0 ml/L, Day 1 (Day 1/Day 2 column pair)
[7] = 1-MCP 5 mg/L, surf. 0 ml/L, Day 1 (Day 1/Day 7 column pair)
[8] = 1-MCP 5 mg/L, surf. 0 ml/L, Day 2
[9] = 1-MCP 5 mg/L, surf. 0 ml/L, Day 7
[10] = 1-MCP 5 mg/L, surf. 2 ml/L, Day 1, phytotoxicity was observed
[11] = 1-MCP 5 mg/L, surf. 2 ml/L, Day 2, phytotoxicity was observed
[12] = 1-MCP 10 mg/L, surf. 0 ml/L, Day 1
[13] = 1-MCP 10 mg/L, surf. 0 ml/L, Day 7
[14] = 1-MCP 25 mg/L, surf. 0 ml/L, Day 1
[15] = 1-MCP 25 mg/L, surf. 0 ml/L, Day 7
[16] = 1-MCP 50 mg/L, surf. 0 ml/L, Day 1 (Day 1/Day 2 column pair), phytotoxicity was observed
[17] = 1-MCP 50 mg/L, surf. 0 ml/L, Day 1 (Day 1/Day 7 column pair), phytotoxicity was observed
[18] = 1-MCP 50 mg/L, surf. 0 ml/L, Day 2, phytotoxicity was observed
[19] = 1-MCP 50 mg/L, surf. 0 ml/L, Day 7, phytotoxicity was observed
[20] = 1-MCP 50 mg/L, surf. 2 ml/L, Day 1, phytotoxicity was observed
[21] = 1-MCP 50 mg/L, surf. 2 ml/L, Day 2, phytotoxicity was observed

CC1=CC1 [1-MCP, 1-methylcyclopropene]
Bud Wilting (%) (Petunia; 1-MCP 1 mg/L, surf 0 ml/L, Day 5): 89% | Bud Wilting (%) (Petunia; 1-MCP 1 mg/L, surf 0 ml/L, Day 9): 93% | Bud Wilting (%) (Petunia; 1-MCP 1 mg/L, surf 0.25 ml/L, Day 5): 76% | Bud Wilting (%) (Petunia; 1-MCP 1 mg/L, surf 0.25 ml/L, Day 9): 93% | Bud Wilting (%) (Petunia; 1-MCP 2.5 mg/L, surf 0 ml/L, Day 5): 74% | Bud Wilting (%) (Petunia; 1-MCP 2.5 mg/L, surf 0 ml/L, Day 9): 91% | Bud Wilting (%) (Petunia; 1-MCP 2.5 mg/L, surf 0.25 ml/L, Day 5): 68% | Bud Wilting (%) (Petunia; 1-MCP 2.5 mg/L, surf 0.25 ml/L, Day 9): 85% | Bud Wilting (%) (Petunia; [2]): 63% | Bud Wilting (%) (Petunia; 1-MCP 5 mg/L, surf 0 ml/L, Day 9): 71% | Bud Wilting (%) (Petunia; [3]): 57% | Bud Wilting (%) (Petunia; 1-MCP 5 mg/L, surf 0.25 ml/L, Day 9): 67% | Bud Wilting (%) (Petunia; [4]): 34% | Bud Wilting (%) (Petunia; 1-MCP 10 mg/L, surf 0 ml/L, Day 9): 52% | Bud Wilting (%) (Petunia; [5]): 37% | Bud Wilting (%) (Petunia; 1-MCP 10 mg/L, surf 0.25 ml/L, Day 9): 50% | sprayed plant compared with control plant [1]: better than the control plant at day 3 or at day 7 or at both | protection against ethylene (‘Candy Stripe’ phlox; 1-MCP 5 mg/L): sufficient in giving protection against ethylene | Bud or Flower Abscission (%) (‘Candy Stripe’ phlox; 1-MCP 5 mg/L, surf 0 ml/L): 21.4% | Bud or Flower Abscission (%) (‘Candy Stripe’ phlox; 1-MCP 5 mg/L, surf 0.25 ml/L): 26.0% | Bud or Flower Abscission (%) (‘Candy Stripe’ phlox; 1-MCP 10 mg/L, surf 0 ml/L): 17.3% | Bud or Flower Abscission (%) (‘Candy Stripe’ phlox; 1-MCP 10 mg/L, surf 0.25 ml/L): 22.8% | Bud or Flower Abscission (%) (‘Candy Stripe’ phlox; 1-MCP 25 mg/L, surf 0 ml/L): 15.8% | Bud or Flower Abscission (%) (‘Candy Stripe’ phlox; 1-MCP 25 mg/L, surf 0.25 ml/L): 21.2% | Bud or Flower Abscission (%) (‘Candy Stripe’ phlox; 1-MCP 50 mg/L, surf 0 ml/L): 44.1% | Bud or Flower Abscission (%) (‘Candy Stripe’ phlox; 1-MCP 50 mg/L, surf 0.25 ml/L): 40.0% | phytotoxicity to the open florets (‘Candy Stripe’ phlox; the highest rates of 1-MCP): caused phytotoxicity to the open florets | protection against ethylene (Kalanchoe; 1-MCP 5 mg/L): sufficient in giving protection against ethylene | Flower Wilting (%) (Kalanchoe; [2]): 7.9% | Flower Wilting (%) (Kalanchoe; 1-MCP 5 mg/L, surf 0 ml/L, Day 15): 11.9% | Flower Wilting (%) (Kalanchoe; [3]): 7.3% | Flower Wilting (%) (Kalanchoe; 1-MCP 5 mg/L, surf 0.25 ml/L, Day 15): 8.7% | Flower Wilting (%) (Kalanchoe; [4]): 5.6% | Flower Wilting (%) (Kalanchoe; 1-MCP 10 mg/L, surf 0 ml/L, Day 15): 6.7% | Flower Wilting (%) (Kalanchoe; [5]): 5.5% | Flower Wilting (%) (Kalanchoe; 1-MCP 10 mg/L, surf 0.25 ml/L, Day 15): 6.8% | Flower Wilting (%) (Kalanchoe; 1-MCP 25 mg/L, surf 0 ml/L, Day 5): 4.6% | Flower Wilting (%) (Kalanchoe; 1-MCP 25 mg/L, surf 0 ml/L, Day 15): 7.2% | Flower Wilting (%) (Kalanchoe; 1-MCP 25 mg/L, surf 0.25 ml/L, Day 5): 6.2% | Flower Wilting (%) (Kalanchoe; 1-MCP 25 mg/L, surf 0.25 ml/L, Day 15): 7.4% | phytotoxicity (Kalanchoe; 1-MCP 50 mg/L): did not result in any phytotoxicity | Flower Wilting (%) (Kalanchoe; 1-MCP 50 mg/L, surf 0 ml/L, Day 5): 6.7% | Flower Wilting (%) (Kalanchoe; 1-MCP 50 mg/L, surf 0 ml/L, Day 15): 7.5% | Flower Wilting (%) (Kalanchoe; 1-MCP 50 mg/L, surf 0.25 ml/L, Day 5): 5.7% | Flower Wilting (%) (Kalanchoe; 1-MCP 50 mg/L, surf 0.25 ml/L, Day 15): 6.7% | protection against ethylene (‘Sonnet’ snapdragon; 1-MCP 5 mg/L): sufficient in giving protection against ethylene | Bud or Flower Abscission (%) (‘Sonnet’ snapdragon; 1-MCP 5 mg/L, surf 0 ml/L): 19.9% | Bud or Flower Abscission (%) (‘Sonnet’ snapdragon; 1-MCP 5 mg/L, surf 0.25 ml/L): 0.0% | Bud or Flower Abscission (%) (‘Sonnet’ snapdragon; 1-MCP 10 mg/L, surf 0 ml/L): 4.4% | Bud or Flower Abscission (%) (‘Sonnet’ snapdragon; 1-MCP 10 mg/L, surf 0.25 ml/L): 3.3% | Bud or Flower Abscission (%) (‘Sonnet’ snapdragon; 1-MCP 25 mg/L, surf 0 ml/L): 7.4% | Bud or Flower Abscission (%) (‘Sonnet’ snapdragon; 1-MCP 25 mg/L, surf 0.25 ml/L): 3.3% | phytotoxicity on flowers (‘Sonnet’ snapdragon; 1-MCP 50 mg/L): did not result in any phytotoxicity | Bud or Flower Abscission (%) (‘Sonnet’ snapdragon; 1-MCP 50 mg/L, surf 0 ml/L): 6.4% | Bud or Flower Abscission (%) (‘Sonnet’ snapdragon; 1-MCP 50 mg/L, surf 0.25 ml/L): 8.9% | phytotoxicity to the open florets (‘Sonnet’ snapdragon; the highest rates of 1-MCP): caused phytotoxicity to the open florets | Flower Loss (%) (Regal Geranium ‘Camelot’; [6]): 45 ^ % | Flower Loss (%) (Regal Geranium ‘Camelot’; [7]): 62% | Flower Loss (%) (Regal Geranium ‘Camelot’; [8]): 64^ % | Flower Loss (%) (Regal Geranium ‘Camelot’; [9]): 46% | Flower Loss (%) (Regal Geranium ‘Camelot’; [10]): 5^(3) % | Flower Loss (%) (Regal Geranium ‘Camelot’; [11]): 24^(3) % | Flower Loss (%) (Regal Geranium ‘Camelot’; [12]): 20% | Flower Loss (%) (Regal Geranium ‘Camelot’; [13]): 0% | Flower Loss (%) (Regal Geranium ‘Camelot’; [14]): 28% | Flower Loss (%) (Regal Geranium ‘Camelot’; [15]): 27% | Flower Loss (%) (Regal Geranium ‘Camelot’; [16]): 0^(3) % | Flower Loss (%) (Regal Geranium ‘Camelot’; [17]): 0^(3) % | Flower Loss (%) (Regal Geranium ‘Camelot’; [18]): 0^(3) % | Flower Loss (%) (Regal Geranium ‘Camelot’; [19]): 48^(3) % | Flower Loss (%) (Regal Geranium ‘Camelot’; [20]): 5^(3) % | Flower Loss (%) (Regal Geranium ‘Camelot’; [21]): 44^(3) % | Flower Loss (%) (Regal Geranium ‘Jewel’; [6]): 84^ % | Flower Loss (%) (Regal Geranium ‘Jewel’; [7]): 90% | Flower Loss (%) (Regal Geranium ‘Jewel’; [8]): 100 ^ % | Flower Loss (%) (Regal Geranium ‘Jewel’; [9]): 76% | Flower Loss (%) (Regal Geranium ‘Jewel’; [10]): 65^(3) % | Flower Loss (%) (Regal Geranium ‘Jewel’; [11]): 100^(3) % | Flower Loss (%) (Regal Geranium ‘Jewel’; [12]): 85% | Flower Loss (%) (Regal Geranium ‘Jewel’; [13]): 68% | Flower Loss (%) (Regal Geranium ‘Jewel’; [14]): 52% | Flower Loss (%) (Regal Geranium ‘Jewel’; [15]): 43% | Flower Loss (%) (Regal Geranium ‘Jewel’; [16]): 28^(3) % | Flower Loss (%) (Regal Geranium ‘Jewel’; [17]): 26^(3) % | Flower Loss (%) (Regal Geranium ‘Jewel’; [18]): 82^(3) % | Flower Loss (%) (Regal Geranium ‘Jewel’; [19]): 65^(3) % | Flower Loss (%) (Regal Geranium ‘Jewel’; [20]): 35^(3) % | Flower Loss (%) (Regal Geranium ‘Jewel’; [21]): 81^(3) % | Wilt and/or Abscission (%) (‘Magenta’ Impatiens; 1-MCP 5 mg/L): 3% | Wilt and/or Abscission (%) (‘Magenta’ Impatiens; 1-MCP 10 mg/L): 2% | Wilt and/or Abscission (%) (‘Magenta’ Impatiens; 1-MCP 25 mg/L): 5% | Wilt and/or Abscission (%) (‘Magenta’ Impatiens; 1-MCP 50 mg/L): 0% | phytotoxicity (‘Magenta’ Impatiens; even at the highest rates with Silwet L-77): No phytotoxicity was observed
